These results are taken from patent publication US8946225B2, “Derivatives of 2H pyridazin-3-ones, their preparation and their use as SCD-1 inhibitors” (Pierre Fabre Medicament, priority 2009, dated 2015).

In general, melting point refers to the temperature of the solid-liquid transition.

`Cn1nccc(NCC(=O)N2CCC(Oc3cc(F)ccc3F)CC2)c1=O` [Example 13, 4-{2-[4-(2,5-Difluoro-phenoxy)-piperidin-1-yl]-2-oxo-ethylamino}-2-methyl-2H-pyridazin-3-one] yielded a melting point of 160 °C.

In the case of `Cn1nccc(NCC(=O)N2CCC(Oc3ccccc3[N+](=O)[O-])CC2)c1=O` [Example 15, 2-Methyl-4-{2-[4-(2-nitro-phenoxy)-piperidin-1-yl]-2-oxo-ethylamino}-2H-pyridazin-3-one], the melting point was determined as 160 °C.

`Cn1ncc(NCC(=O)N2CCC(Oc3ccccc3C(F)(F)F)CC2)cc1=O` [Example 19, 2-Methyl-5-{2-oxo-2-[4-(2-trifluoromethyl-phenoxy)-piperidin-1-yl]-ethylamino}-2H-pyridazin-3-one] registered a melting point of 245 to 260 °C.

On to `Cn1nccc(OCC(=O)N2CCC(Oc3ccccc3OC(F)(F)F)CC2)c1=O` [Example 21, 2-Methyl-4-{2-oxo-2-[4-(2-trifluoromethoxy-phenoxy)-piperidin-1-yl]-ethoxy}-2H-pyridazin-3-one], for which the melting point stood at 126 °C.

In turn, `Cn1nccc(OCC(=O)N2CCC(Oc3ccc(F)cc3Cl)CC2)c1=O` [Example 22, 4-{2-[4-(2-Chloro-4-fluoro-phenoxy)-piperidin-1-yl]-2-oxo-ethoxy}-2-methyl-2H-pyridazin-3-one] displayed a melting point of 135 °C.

For the compound `CC(=O)c1ccc(F)cc1OC1CCN(C(=O)COc2ccnn(C)c2=O)CC1` [Example 23, 4-{2-[4-(2-Acetyl-5-fluoro-phenoxy)-piperidin-1-yl]-2-oxo-ethoxy}-2-methyl-2H-pyridazin-3-one], the melting point came out at 192 °C.

With `Cn1ncc(OCC(=O)N2CCC(Oc3ccc(Cl)cc3Cl)CC2)cc1=O` [Example 26, 5-{2-[4-(2,4-Dichloro-phenoxy)-piperidin-1-yl]-2-oxo-ethoxy}-2-methyl-2H-pyridazin-3-one], the melting point worked out at 140 °C.

`CN(Cc1ccc(Cl)c(Cl)c1)C1CCN(C(=O)CNc2ccnn(C)c2=O)CC1` [Example 28, 4-(2-{4-[(3,4-Dichloro-benzyl)-methyl-amino]-piperidin-1-yl}-2-oxo-ethylamino)-2-methyl-2H-pyridazin-3-one] registered a melting point of 155 °C.

For the compound `Cn1nccc(NCC(=O)N2CCN(C(=O)c3cc(F)ccc3C(F)(F)F)CC2)c1=O` [Example 29, 4-{2-[4-(5-Fluoro-2-trifluoromethyl-benzoyl)-piperazin-1-yl]-2-oxo-ethylamino}-2-methyl-2H-pyridazin-3-one], the melting point amounted to 210 °C.

`Cn1nccc(NCC(=O)N2CCN(C(=O)c3ccccc3C(F)(F)F)CC2)c1=O` [Example 30, 2-Methyl-4-{2-oxo-2-[4-(2-trifluoromethyl-benzoyl)-piperazin-1-yl]-ethylamino}-2H-pyridazin-3-one] gave a melting point of 170 °C.

With `Cn1nccc(NCC(=O)N2CC(COc3cc(C(F)(F)F)ccc3Cl)C2)c1=O` [Example 33, 4-{2-[3-(2-Chloro-5-trifluoromethyl-phenoxymethyl)-azetidin-1-yl]-2-oxo-ethylamino}-2-methyl-2H-pyridazin-3-one], the melting point came to 174 °C.

Turning to `C[C@@H](Nc1ccnn(C)c1=O)C(=O)N1CCC(Oc2cc(C(F)(F)F)ccc2Cl)CC1` [Example 38, 4-{(R)-2-[4-(2-Chloro-5-trifluoromethyl-phenoxy)-piperidin-1-yl]-1-methyl-2-oxo-ethylamino}-2-methyl-2H-pyridazin-3-one], the melting point turned out to be 70 °C.

With `C[C@H](Nc1ccnn(C)c1=O)C(=O)N1CCC(Oc2cc(C(F)(F)F)ccc2Cl)CC1` [Example 39, 4-{(S)-2-[4-(2-Chloro-5-trifluoromethyl-phenoxy)-piperidin-1-yl]-1-methyl-2-oxo-ethylamino}-2-methyl-2H-pyridazin-3-one], the melting point came to 70 °C.

With `CC(C)n1nccc(NCC(=O)N2CCC(Oc3ccccc3C(F)(F)F)CC2)c1=O` [Example 49, 2-Isopropyl-4-{2-oxo-2-[4-(2-trifluoromethyl-phenoxy)-piperidin-1-yl]-ethylamino}-2H-pyridazin-3-one], the melting point was found to be 180 °C.
